Measured values published in the supplement of paper PMC8671470.

How the values were obtained:
Conditions in all cases: 72 h
[1] = test system: MV4-11; assay: cell viability (% survival relative to DMSO control, bortezomib = 0%); higher = less cytotoxic
Procedure, shortened: (§1)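 Seeding density for each of the 10 AML and 5 CML cell lines was titrated to the linear growth range. Cells went into 384-well plates pre-printed in duplicate with compounds at 1, 10, 100, 1000 or 10000 nM and were held for 72 h at 37 °C with 5% CO2. CellTiter-Glo luminescence then provided the readout. Percent survival is expressed relative to vehicle at 100% and a 10 µM positive control at 0%, averaged over duplicates.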

[2] = test system: KCL-22; assay: as above
Procedure, shortened: as §1

[3] = test system: NOMO-1; assay: as above
Procedure, shortened: as §1

[4] = test system: Mono-Mac-6; assay: as above
Procedure, shortened: as §1

[5] = test system: BV-173; assay: as above
Procedure, shortened: as §1

[6] = test system: KU-812; assay: as above
Procedure, shortened: as §1

[7] = test system: THP-1; assay: as above
Procedure, shortened: as §1

[8] = test system: MOLM-13; assay: as above
Procedure, shortened: as §1

[9] = test system: HL-60; assay: as above
Procedure, shortened: as §1

[10] = test system: ML-2; assay: as above
Procedure, shortened: as §1

[11] = test system: SHI-1; assay: as above
Procedure, shortened: as §1

[12] = test system: K-562; assay: as above
Procedure, shortened: as §1

[13] = test system: HEL; assay: as above
Procedure, shortened: as §1

[14] = test system: LAMA-84; assay: as above
Procedure, shortened: as §1

[15] = test system: KG-1; assay: as above
Procedure, shortened: as §1

[16] = test system: MV4-11
Procedure, shortened: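 The IC50 was read from log-logistic dose–response fits. Fifteen myeloid leukaemia lines were exposed for 72 h at 37 °C with 5% CO2 to five tenfold doses from 1 to 10,000 nM in duplicate. ATP luminescence, normalised to vehicle and to a 10 µM positive control, was fitted with four parameters.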

[17] = test system: HL-60; assay: cell viability (% survival relative to DMSO control); higher = less cytotoxic
Procedure, shortened: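 Four-parameter log-logistic fits in drc and PharmacoGx supplied area under the curve where it is given. Underlying viability came from CellTiter-Glo, normalised to DMSO and proteasome-inhibitor wells, with the proteasome inhibitor at 10 μM. HL-60 cells in RPMI 1640 plus 10% FBS had been rescreened against the full library at five tenfold concentrations of 1–10,000 nM, in duplicate on 384-well plates, with DMSO or 100 nM of one of three metabolic inhibitors, for 72 h at 37 °C, 5% CO2.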

NC(=O)c1cccc(-c2cccc(OC(=O)NC3CCCCC3)c2)c1 [URB-597]
cell viability [%]
Conditions	1 nM	10 nM	100 nM	1000 nM	10000 nM
[1]	96.4	96.5	109	99.6	89.5
[2]	105	106	104	98.2	109
[3]	101	103	105	96.1	110
[4]	102	99.6	97.2	117	123
[5]	91	104	105	104	115
[6]	92.1	99.1	103	103	87.2
[7]	98.5	93.8	105	99.1	102
[8]	99.9	93.7	105	93.8	117
[9]	98.7	89.2	114	94.3	103
[10]	92.2	94.2	105	105	114
[11]	93.9	86.1	89.4	100	110
[12]	102	98	100	90.6	100
[13]	102	104	103	110	95.2
[14]	99.8	96.9	99.6	98.3	96.1
[15]	102	103	102	92.8	101

Conditions	IC50 (cell viability) [µM]
[16]	> 10

cell viability [%], [17]
Conditions	0.001 µM	0.01 µM	0.1 µM	1 µM	10 µM
co-treatment: AZD3965 100 nM	101	105	101	103	103
co-treatment: DMSO vehicle	100	104	99.6	100	102
co-treatment: GSK2194069 100 nM	103	113.65	98.1	101	104
co-treatment: pictilisib 100 nM	108	106.8	100	97.2	111

CCCCCCCCCCCC(=O)c1c(O)c(C(=O)CCCCCCCCCCC)c(O)c(C2CC(c3ccc(O)cc3)Oc3cc(O)ccc32)c1O (configuration not stated)
cell viability [%]
Conditions	1 nM	10 nM	100 nM	1000 nM	10000 nM
[1]	95.9	115	101	98.5	90.1
[2]	107	113	115	123	102
[3]	108	118	110	111	96.7
[4]	86.1	112	106	103	91.6
[5]	119	114	102	101	89
[6]	102	104	110	102	105
[7]	101	114	107	104	102
[8]	101	119	89.5	99.1	82.9
[9]	118	119	70.4	105	114
[10]	105	114	118	116	104
[11]	95.1	111	102	112	104
[12]	97.9	91.5	99.4	117	108
[13]	108	97.8	115	110	87
[14]	105	99.9	114	103	99.1
[15]	101	117	128	101	81.8

Conditions	IC50 (cell viability) [µM]
[16]	> 10

cell viability [%], [17]
Conditions	0.001 µM	0.01 µM	0.1 µM	1 µM	10 µM
co-treatment: AZD3965 100 nM	95.8	104	97.5	107	101
co-treatment: DMSO vehicle	99.8	98.29	99.11	102.2	104.7
co-treatment: GSK2194069 100 nM	101	96.5	101	104	100
co-treatment: pictilisib 100 nM	107	107	99.9	101	95.4
